For data set [1], the system named is Klebsiella pneumoniae Kl-38. Nature of the data set: MIC (minimum inhibitory concentration).
The subject of data set [2] is Pseudomonas aeruginosa TM-121. In words: MIC (minimum inhibitory concentration).
In data set [3] the test system is Escherichia coli W-677/JR 214. Nature of the data set: MIC (minimum inhibitory concentration). Particulars: tobramycin resistant organism.
The subject of data set [4] is Escherichia coli W-677/JR 762. In words: MIC (minimum inhibitory concentration).
The subject of data set [5] is Staphylococcus aureus ATCC 25923. In words: MIC (minimum inhibitory concentration).
The test system of a further data set is Proteus mirabilis TB-617. In words: MIC (minimum inhibitory concentration). It is filed as cell-based.
The subject of data set [6] is Pseudomonas aeruginosa PP-6. In words: MIC (minimum inhibitory concentration). The settings on record: tobramycin resistant organism.
The next data set deals with Escherichia coli TB-705. Nature of the data set: MIC (minimum inhibitory concentration). The class given is cell-based. Particulars: TB705, Table 3.
Data set [7] deals with Serratia marcescens MA-26. In words: MIC (minimum inhibitory concentration). Particulars: MA26.
In data set [8] the test system is Citrobacter freundii Ct-31. Nature of the data set: MIC (minimum inhibitory concentration). Particulars: CT31.
Data set [9] has as its system Staphylococcus aureus 80285. Nature of the data set: MIC (minimum inhibitory concentration).
Data set [10] relates to Enterobacter cloacae CI-83. In words: MIC (minimum inhibitory concentration). Particulars: CI83.
Another data set deals with Proteus rettgeri Ret 33. Nature of the data set: MIC (minimum inhibitory concentration). Particulars: Providencia rettgeri, RET33.
For data set [11] the following is noted: literature (Kawaguchi et al.; Fujisawa et al.); cited from earlier work.
The test system of data set [12] is kanamycin resistant bacteria. The settings on record: literature (Kawaguchi et al.; Fujisawa et al.); cited from earlier work.
Setting [13] is: Table 2, tobramycin resistant organism.
Setting [14] is: Klebsiella pneumoniae, KL38, Table 2.
The mark [15] stands for this setting: Klebsiella pneumoniae, KL38, Table 3.
[16] abbreviates: Escherichia coli, W677/JR214, Table 2.
The mark [17] stands for this setting: Escherichia coli, W677/JR214, Table 3.
The mark [18] stands for this setting: Staphylococcus aureus, ATCC25923.
Setting [19] is: Proteus mirabilis, TB617, Table 2, read-out: MIC.
Where [20] appears, read: Proteus mirabilis, TB617, Table 3, read-out: MIC.
Where [21] appears, read: Pseudomonas aeruginosa, PP6, Table 2.
Setting [22] is: Pseudomonas aeruginosa, PP6, Table 3.

In brackets after ≈: the same amount, converted by molar mass. Like-named read-outs stand apart in the source and are kept apart here. A value given as a limit tells only on which side of the number the result lay.

What is called MIC is the lowest concentration found to suppress growth. With gentamicin [GM], the MIC in [1] (Table 2) amounted to 0.78 µg/mL; in data set [2] (setting [13]), 100 µg/mL; in [3] (Table 2), 100 µg/mL; in data set [4] (setting [13]), 100 µg/mL; in [5] (Table 2) it was 0.78 µg/mL; in the data set on Proteus mirabilis TB-617 (Table 2), 25 µg/mL. The minimal inhibitory concentration (MIC) in [6] (Table 2) is over 200 µg/mL.
Take `NC[C@H]1O[C@H](O[C@H]2[C@H](O)[C@@H](O[C@H]3O[C@H](CO)[C@@H](O)[C@H](N)[C@H]3O)[C@H](N)C[C@@H]2N)[C@H](O)[C@@H](O)[C@@H]1O` [KM-A, kanamycin A]: the MIC was over 100 µg/mL against Escherichia coli TB-705; over 200 µg/mL in data set [1] (setting [14]); over 100 µg/mL in data set [1] (setting [15]); over 200 µg/mL in [2] (Pseudomonas aeruginosa, TM121); over 100 µg/mL in [7]; over 100 µg/mL in [8]. Besides, the MIC is over 200 µg/mL in [3] (setting [16]); over 100 µg/mL in data set [3] (setting [17]); over 200 µg/mL in data set [4] (Escherichia coli, W677/JR762); over 100 µg/mL in [9]; over 100 µg/mL in data set [10]; 6.25 µg/mL (≈ 12.9 µM) in data set [5] (setting [18]). In addition, the minimal inhibitory concentration (MIC) with Proteus mirabilis TB-617 (setting [19]) was over 200 µg/mL; in the data set on Proteus mirabilis TB-617 (setting [20]), over 100 µg/mL; in data set [6] (setting [21]), 200 µg/mL (≈ 413 µM); in data set [6] (setting [22]) it was over 100 µg/mL; against Proteus rettgeri Ret 33, over 100 µg/mL.
For `NCC[C@H](O)C(=O)N[C@@H]1C[C@H](N)[C@@H](O[C@H]2O[C@H](CN)[C@@H](O)[C@H](O)[C@H]2O)[C@H](O)[C@H]1O[C@H]1O[C@H](CO)[C@@H](O)[C@H](N)[C@H]1O` [Amikacin, amikacin], the “toxicity compared with kanamycin” value in [11] is “approximately the same degree of the toxicity as kanamycin”. The “effectiveness against kanamycin resistant bacteria” value in data set [12] is listed as “effective against kanamycin resistant bacteria”.
In the case of `NC[C@H]1O[C@H](O[C@H]2[C@H](O)[C@@H](O[C@H]3O[C@H](CO)[C@@H](O)[C@H](N)[C@H]3O)[C@H](NC(=O)C3(O)CCNC3)C[C@@H]2N)[C@H](O)[C@@H](O)[C@@H]1O` (some centres unmarked) [KM-A der., 1-N-(3-hydroxypyrrolidine-3-carbonyl)-kanamycin A], the MIC came out at 25 µg/mL (≈ 41.8 µM) against Escherichia coli TB-705; 3.13 µg/mL (≈ 5.24 µM) in data set [1] (setting [15]); 6.25 µg/mL (≈ 10.5 µM) in data set [7]; 3.13 µg/mL (≈ 5.24 µM) in [8]; 6.25 µg/mL (≈ 10.5 µM) in [3] (setting [17]); 12.5 µg/mL (≈ 20.9 µM) in data set [9]. Further, the MIC in data set [10] was determined as 3.13 µg/mL (≈ 5.24 µM); in the data set on Proteus mirabilis TB-617 (setting [20]), 6.25 µg/mL (≈ 10.5 µM); in [6] (setting [22]) it was 12.5 µg/mL (≈ 20.9 µM); with Proteus rettgeri Ret 33 it was 1.56 µg/mL (≈ 2.61 µM).
Consider `CN[C@@H]1[C@@H](O)[C@@H](O[C@@H]2[C@@H](O)[C@H](O[C@H]3OC(CN)=CC[C@H]3N)[C@@H](N)C[C@H]2N)OC[C@]1(C)O` [SSM, sisomicin], for which the minimum inhibitory concentration (MIC) in data set [1] (setting [14]) stood at 0.39 µg/mL (≈ 0.871 µM); in data set [2] (Pseudomonas aeruginosa, TM121), 200 µg/mL (≈ 447 µM); in [3] (setting [16]) it was 25 µg/mL (≈ 55.9 µM); in data set [4] (Escherichia coli, W677/JR762), 50 µg/mL (≈ 112 µM); in [5] (setting [18]), 1.56 µg/mL (≈ 3.49 µM); in the data set on Proteus mirabilis TB-617 (setting [19]), 12.5 µg/mL (≈ 27.9 µM). 200 µg/mL (≈ 447 µM) was the least that counted as inhibitory in data set [6] (setting [21]) (MIC).
For the compound `NC[C@H]1O[C@H](O[C@H]2[C@H](O)[C@@H](O[C@H]3O[C@H](CO)[C@@H](O)[C@H](N)[C@H]3O)[C@H](N)C[C@@H]2N)[C@H](N)C[C@@H]1O` [TOB, tobramycin], the minimal inhibitory concentration (MIC) stood at 6.25 µg/mL (≈ 13.4 µM) in the data set with Escherichia coli TB-705; 3.13 µg/mL (≈ 6.69 µM) in [1] (setting [14]); 1.56 µg/mL (≈ 3.34 µM) in [1] (setting [15]); 100 µg/mL (≈ 214 µM) in [2] (Pseudomonas aeruginosa, TM121); 50 µg/mL (≈ 107 µM) in data set [7]; 3.13 µg/mL (≈ 6.69 µM) in data set [8]. For the same compound, the MIC came to 50 µg/mL (≈ 107 µM) in [3] (setting [16]); 100 µg/mL (≈ 214 µM) in data set [3] (setting [17]); 100 µg/mL (≈ 214 µM) in data set [4] (Escherichia coli, W677/JR762); 0.78 µg/mL (≈ 1.67 µM) in [9]; 0.78 µg/mL (≈ 1.67 µM) in data set [10]; 1.56 µg/mL (≈ 3.34 µM) in data set [5] (setting [18]). Further, the minimal inhibitory concentration (MIC) in the data set with Proteus mirabilis TB-617 (setting [19]) was 12.5 µg/mL (≈ 26.7 µM); with Proteus mirabilis TB-617 (setting [20]), 12.5 µg/mL (≈ 26.7 µM); in data set [6] (setting [21]), 50 µg/mL (≈ 107 µM); in data set [6] (setting [22]) it was over 100 µg/mL; in the data set on Proteus rettgeri Ret 33, 1.56 µg/mL (≈ 3.34 µM).
For the compound `NC[C@H]1O[C@H](O[C@H]2[C@H](O)[C@@H](O[C@H]3O[C@H](CO)[C@@H](O)[C@H](N)[C@H]3O)[C@H](NC(=O)C3(O)CCNCC3)C[C@@H]2N)[C@H](N)C[C@@H]1O` [TOB der.], the MIC came to 3.13 µg/mL (≈ 5.26 µM) against Escherichia coli TB-705; 1.56 µg/mL (≈ 2.62 µM) in data set [1] (setting [14]); 0.78 µg/mL (≈ 1.31 µM) in [1] (setting [15]); 12.5 µg/mL (≈ 21 µM) in [2] (Pseudomonas aeruginosa, TM121); 12.5 µg/mL (≈ 21 µM) in [7]; 0.78 µg/mL (≈ 1.31 µM) in [8]. The minimal inhibitory concentration (MIC) was 1.56 µg/mL (≈ 2.62 µM) in [3] (setting [16]); 0.78 µg/mL (≈ 1.31 µM) in data set [3] (setting [17]); 6.25 µg/mL (≈ 10.5 µM) in data set [4] (Escherichia coli, W677/JR762); 0.39 µg/mL (≈ 0.656 µM) in data set [9]; 0.78 µg/mL (≈ 1.31 µM) in [10]; 1.56 µg/mL (≈ 2.62 µM) in data set [5] (setting [18]). Further, the minimal inhibitory concentration (MIC) in the data set with Proteus mirabilis TB-617 (setting [19]) is 6.25 µg/mL (≈ 10.5 µM); with Proteus mirabilis TB-617 (setting [20]), 1.56 µg/mL (≈ 2.62 µM); in data set [6] (setting [21]), 6.25 µg/mL (≈ 10.5 µM); in data set [6] (setting [22]) it was 3.13 µg/mL (≈ 5.26 µM); in the data set with Proteus rettgeri Ret 33 it was 0.78 µg/mL (≈ 1.31 µM).

The values above are taken from patent US4166114A, “Aminoglycoside antibiotic derivatives and method of use” (Shionogi & Co., Ltd., priority 1976, dated 1979).
